Data as given in ChEMBL document CHEMBL1250451, “Mechanistic insights into a Ca2+-dependent family of alpha-mannosidases in a human gut symbiont” (Nat Chem Biol, 2010).
Calls of active or inactive are those of the source. The calls are words filed in the database; no cut-off is given here.

What was measured:
Type in all cases: protein assay
[1] = molecular target: T1, Alpha-1,2-mannosidase (BT_3527) (Bacteroides thetaiotaomicron) (UniProt Q8A1Y1); experiment: Activity of Bacteroides thetaiotaomicron GH92 alpha-mannosidase GH92 alpha-mannosidase 3527 assessed as mannose release at 1 mM after 16 hrs by HPLC relative to untreated control after 16 hrs by HPLC
T1 sequence (whole entry): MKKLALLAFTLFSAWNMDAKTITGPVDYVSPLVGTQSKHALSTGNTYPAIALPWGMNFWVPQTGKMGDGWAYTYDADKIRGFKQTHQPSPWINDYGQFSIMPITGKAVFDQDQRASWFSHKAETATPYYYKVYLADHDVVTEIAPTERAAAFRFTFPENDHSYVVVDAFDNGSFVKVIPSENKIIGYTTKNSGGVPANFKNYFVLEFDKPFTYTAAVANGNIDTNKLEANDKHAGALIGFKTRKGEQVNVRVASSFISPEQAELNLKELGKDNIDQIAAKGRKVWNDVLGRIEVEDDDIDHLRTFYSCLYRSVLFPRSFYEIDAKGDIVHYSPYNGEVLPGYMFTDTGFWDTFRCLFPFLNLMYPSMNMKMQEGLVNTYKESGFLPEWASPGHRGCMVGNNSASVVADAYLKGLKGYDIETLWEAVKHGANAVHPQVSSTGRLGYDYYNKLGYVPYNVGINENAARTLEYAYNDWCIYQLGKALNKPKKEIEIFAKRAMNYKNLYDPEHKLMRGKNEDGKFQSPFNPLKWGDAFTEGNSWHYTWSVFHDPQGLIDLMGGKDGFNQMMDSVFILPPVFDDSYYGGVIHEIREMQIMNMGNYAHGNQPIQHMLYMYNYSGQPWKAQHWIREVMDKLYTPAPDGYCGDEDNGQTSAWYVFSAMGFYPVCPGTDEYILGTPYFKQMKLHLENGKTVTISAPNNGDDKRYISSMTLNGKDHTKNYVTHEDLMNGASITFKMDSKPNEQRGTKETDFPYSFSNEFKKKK

[2] = molecular target: T2, Alpha-1,2-mannosidase (BT_3990) (Bacteroides thetaiotaomicron) (UniProt Q8A0N1); experiment: Activity of Bacteroides thetaiotaomicron GH92 alpha-mannosidase GH92 alpha-mannosidase 3990 assessed as mannose release at 1 mM after 16 hrs by HPLC relative to untreated control after 16 hrs by HPLC
T2 sequence (whole entry): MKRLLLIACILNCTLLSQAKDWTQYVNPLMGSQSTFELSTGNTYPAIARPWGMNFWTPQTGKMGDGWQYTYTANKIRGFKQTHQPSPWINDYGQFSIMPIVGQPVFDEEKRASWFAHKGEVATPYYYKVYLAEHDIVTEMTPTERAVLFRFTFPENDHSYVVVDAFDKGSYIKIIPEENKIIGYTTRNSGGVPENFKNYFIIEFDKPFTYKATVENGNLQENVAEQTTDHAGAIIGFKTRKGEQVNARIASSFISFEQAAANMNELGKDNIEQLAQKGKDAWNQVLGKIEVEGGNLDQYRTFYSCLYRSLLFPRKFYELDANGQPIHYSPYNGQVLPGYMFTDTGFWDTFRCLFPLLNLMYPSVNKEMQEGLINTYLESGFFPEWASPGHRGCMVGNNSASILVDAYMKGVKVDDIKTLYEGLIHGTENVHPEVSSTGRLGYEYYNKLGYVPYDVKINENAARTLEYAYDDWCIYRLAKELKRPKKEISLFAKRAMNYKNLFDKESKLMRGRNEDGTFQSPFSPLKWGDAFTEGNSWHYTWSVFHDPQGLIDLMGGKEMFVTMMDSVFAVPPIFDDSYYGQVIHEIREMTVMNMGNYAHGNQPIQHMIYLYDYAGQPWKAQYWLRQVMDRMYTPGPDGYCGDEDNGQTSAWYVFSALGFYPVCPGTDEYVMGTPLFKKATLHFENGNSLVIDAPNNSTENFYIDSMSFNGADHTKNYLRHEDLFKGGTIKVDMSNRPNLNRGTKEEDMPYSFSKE

[3] = molecular target: T3, Alpha-1,2-mannosidase family protein (BT_4093) (Bacteroides thetaiotaomicron) (UniProt Q8A0C8); experiment: Activity of Bacteroides thetaiotaomicron GH92 alpha-mannosidase GH92 alpha-mannosidase 4093 assessed as mannose release at 1 mM after 16 hrs by HPLC relative to untreated control after 16 hrs by HPLC
T3 sequence (whole entry): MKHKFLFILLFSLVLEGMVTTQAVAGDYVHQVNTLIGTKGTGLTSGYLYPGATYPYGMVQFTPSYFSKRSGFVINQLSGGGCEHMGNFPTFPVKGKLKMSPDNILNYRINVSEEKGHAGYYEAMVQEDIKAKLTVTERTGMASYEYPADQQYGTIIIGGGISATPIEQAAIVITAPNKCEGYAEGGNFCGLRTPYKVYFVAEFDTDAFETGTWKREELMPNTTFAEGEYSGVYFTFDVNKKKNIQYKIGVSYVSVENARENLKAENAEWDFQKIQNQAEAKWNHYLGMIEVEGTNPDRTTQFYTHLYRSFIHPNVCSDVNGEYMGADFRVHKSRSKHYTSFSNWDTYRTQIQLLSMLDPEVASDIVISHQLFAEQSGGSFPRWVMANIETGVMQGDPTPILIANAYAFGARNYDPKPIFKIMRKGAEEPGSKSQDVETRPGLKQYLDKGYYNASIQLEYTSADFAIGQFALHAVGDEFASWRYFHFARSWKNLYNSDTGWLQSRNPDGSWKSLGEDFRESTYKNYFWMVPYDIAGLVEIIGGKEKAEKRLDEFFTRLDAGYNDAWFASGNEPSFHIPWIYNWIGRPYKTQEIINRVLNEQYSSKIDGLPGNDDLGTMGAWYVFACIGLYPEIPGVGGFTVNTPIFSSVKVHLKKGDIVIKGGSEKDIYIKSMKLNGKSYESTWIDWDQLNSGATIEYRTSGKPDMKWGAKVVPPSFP

## OC[C@H]1O[C@H](O[C@H]2[C@@H](O)[C@H](O)[C@@H](CO)O[C@@H]2O)[C@@H](O)[C@@H](O)[C@@H]1O
[1]
  Activity: inactive
[2]
  Activity: 100%
[3]
  Activity: inactive

## OC[C@H]1O[C@H](OC[C@H]2O[C@H](O)[C@@H](O)[C@@H](O)[C@@H]2O)[C@@H](O)[C@@H](O)[C@@H]1O
[1]
  Activity: inactive
[2]
  Activity: inactive
[3]
  Activity: inactive

## OC[C@H]1O[C@H](O[C@@H]2[C@H](O)[C@@H](O)O[C@H](CO)[C@H]2O)[C@@H](O)[C@@H](O)[C@@H]1O
[1]
  Activity: inactive
[2]
  Activity: 0.036%
[3]
  Activity: inactive

## OC[C@H]1O[C@H](O[C@H]2[C@H](O)[C@H](O)[C@@H](O)O[C@@H]2CO)[C@@H](O)[C@@H](O)[C@@H]1O
[1]
  Activity: inactive
[2]
  Activity: 0.022%
[3]
  Activity: 100%
